Test system: StdA-His
Assay: toxoflavin degradation assay, Lineweaver-Burk plot
Assay type: biochemical, Sphingomonas adhaesiva
Conditions: 50 mM sodium phosphate pH 8.0, 5 mM DTT, 28°C, no metal added

Compound: Cn1ncnc2c(=O)n(C)c(=O)nc1-2 [toxoflavin, 1,6‐dimethylpyrimido[5,4‐e]‐1,2,4‐triazine‐5,7(1H,6H) dione]
- Km: 65 µM

— publication PMC8313270 (Microbial Biotechnology, 2021)
